Results as given in the NIST ThermoML archive (doi:10.1021/je4004542).
Where “and” joins values, the source holds several entries; their conditions need not be identical. Identical values can stand only once.

Settings: for mass density: Liquid, isochoric method; for surface tension liquid-gas: Ring tensiometer

CC(F)(F)CC(F)(F)F [1,1,1,3,3-pentafluorobutane]
Settings | mass density [kg/m3]
237.49 K, 3052.4 kPa | 1382.79
238.27 K, 4040.1 kPa | 1382.71
239.08 K, 5074 kPa | 1382.22
239.08 K, 5081.7 kPa | 1382.63
243.12 K, 10185 kPa | 1382.22
247.08 K, 15188 kPa | 1381.81
247.43 K, 956.6 kPa | 1361.21
248.25 K, 1931.8 kPa | 1361.13
249.22 K, 3081.2 kPa | 1361.03
250.2 K, 4243.7 kPa | 1360.94
250.92 K, 19991 kPa | 1381.43
250.93 K, 5088.8 kPa | 1360.86
255 K, 25056 kPa | 1381.02
255.26 K, 10152 kPa | 1360.44
258.99 K, 29998 kPa | 1380.62
259.5 K, 15102 kPa | 1360.02
260.21 K, 1298.1 kPa | 1336.72
261.05 K, 2152.9 kPa | 1336.64
261.98 K, 3278.8 kPa | 1336.55
262.73 K, 4030.2 kPa | 1336.48
262.97 K, 34873 kPa | 1380.23
263.72 K, 19989 kPa | 1359.61
263.74 K, 5132.2 kPa | 1336.38
267.12 K, 39916 kPa | 1379.82
268.05 K, 24964 kPa | 1359.2
268.32 K, 10033 kPa | 1335.95
272.35 K, 29861 kPa | 1358.79
273.08 K, 15145 kPa | 1335.5
273.72 K, 1076.8 kPa | 1309.97
274.73 K, 2060 kPa | 1309.88
275.63 K, 2942.2 kPa | 1309.8
276.61 K, 3921.9 kPa | 1309.71
276.83 K, 34914 kPa | 1358.36
277.65 K, 4903.9 kPa | 1309.61
277.66 K, 19995 kPa | 1335.08
281.43 K, 40068 kPa | 1357.92
282.34 K, 24894 kPa | 1334.64
282.69 K, 10162 kPa | 1310.01
287.06 K, 29792 kPa | 1334.21
287.75 K, 1242 kPa | 1280.22
287.79 K, 15107 kPa | 1309.56
288.9 K, 2019.2 kPa | 1280.13
290.22 K, 3193 kPa | 1280.01
291.35 K, 4070.9 kPa | 1279.92
292.09 K, 35022 kPa | 1333.75
292.96 K, 5455.1 kPa | 1279.78
292.96 K, 20092 kPa | 1309.09
296.9 K, 39956 kPa | 1333.31
297.78 K, 24667 kPa | 1308.67
298.16 K, 10021 kPa | 1279.33
298.57 K, 1157.4 kPa | 1258.72
299.69 K, 2006.3 kPa | 1258.62
301.02 K, 3084.3 kPa | 1258.51
302.24 K, 4081.3 kPa | 1258.41
303.22 K, 29830 kPa | 1308.18
303.47 K, 5080.2 kPa | 1258.31
303.85 K, 15147 kPa | 1278.84
308.65 K, 34947 kPa | 1307.7
309.5 K, 20037 kPa | 1278.36
309.51 K, 9974.6 kPa | 1257.8
309.96 K, 1066.8 kPa | 1234.65
311.31 K, 2069.7 kPa | 1234.54
312.57 K, 3017.8 kPa | 1234.43
313.89 K, 4006.1 kPa | 1234.33
314.06 K, 40001 kPa | 1307.23
315.23 K, 5013.4 kPa | 1234.22
315.28 K, 25013 kPa | 1277.86
315.8 K, 15053 kPa | 1257.28
321.09 K, 29987 kPa | 1277.37
322.04 K, 20055 kPa | 1256.76
322.05 K, 10082 kPa | 1233.67
322.3 K, 1278.8 kPa | 1207.34
323.48 K, 1919.7 kPa | 1207.25
325.25 K, 3125.1 kPa | 1207.12
326.62 K, 4057.4 kPa | 1207.01
326.99 K, 34967 kPa | 1276.87
327.9 K, 4926.1 kPa | 1206.91
328.32 K, 25047 kPa | 1256.24
328.8 K, 15073 kPa | 1233.12
333.06 K, 40085 kPa | 1276.36
334.62 K, 30028 kPa | 1255.72
335.52 K, 1037.9 kPa | 1175.56
335.52 K, 10079 kPa | 1206.32
335.52 K, 20025 kPa | 1232.59
337.15 K, 2014.4 kPa | 1175.44
338.81 K, 3050.5 kPa | 1175.32
340.39 K, 4011 kPa | 1175.2
341.51 K, 35426 kPa | 1255.16
342.03 K, 5008.9 kPa | 1175.08
342.36 K, 25012 kPa | 1232.04
343.05 K, 15153 kPa | 1205.73
347.07 K, 39768 kPa | 1254.7
353.15 K, 11756 kPa | 1174.25
353.15 K, 21912 kPa | 1204.96
353.15 K, 32850 kPa | 1231.18

Settings | surface tension liquid-gas
261.8 K | 19.87 mN/m
261.94 K | 19.66 mN/m
268.05 K | 19.19 mN/m
268.09 K | 19.01 mN/m
273.05 K | 18.56 mN/m and 18.41 mN/m
277.76 K | 18.08 mN/m and 17.98 mN/m
282.88 K | 17.57 mN/m
282.98 K | 17.42 mN/m
288.32 K | 17.05 mN/m
288.35 K | 16.88 mN/m
293.51 K | 16.3 mN/m
293.54 K | 16.29 mN/m
297.79 K | 15.81 mN/m
297.86 K | 15.92 mN/m
302.48 K | 15.41 mN/m
302.55 K | 15.38 mN/m
308.11 K | 14.66 mN/m
308.31 K | 14.65 mN/m

COC(F)(F)C(F)(F)C(F)(F)F [heptafluoropropyl methyl ether]
Settings | mass density [kg/m3]
209.16 K, 1147.7 kPa | 1630.6
215.36 K, 9581.3 kPa | 1629.81
219.53 K, 15297 kPa | 1629.29
220.04 K, 1236.5 kPa | 1604.5
223 K, 19918 kPa | 1628.87
223.03 K, 4963.4 kPa | 1604.13
227.03 K, 9963.9 kPa | 1603.65
231.15 K, 15085 kPa | 1603.16
231.6 K, 910.5 kPa | 1576.15
232.59 K, 2030.9 kPa | 1576.04
233.44 K, 3013 kPa | 1575.94
234.26 K, 3948.9 kPa | 1575.84
235.13 K, 20005 kPa | 1602.69
235.25 K, 5067.3 kPa | 1575.72
239.34 K, 25172 kPa | 1602.2
239.68 K, 10109 kPa | 1575.21
243.19 K, 29834 kPa | 1601.75
244.03 K, 15038 kPa | 1574.72
244.63 K, 1009.9 kPa | 1544.86
245.59 K, 1998.3 kPa | 1544.75
246.51 K, 2962.6 kPa | 1544.65
247.39 K, 3900.7 kPa | 1544.55
247.5 K, 35024 kPa | 1601.26
248.47 K, 20022 kPa | 1574.22
248.53 K, 5046.1 kPa | 1544.43
251.72 K, 40059 kPa | 1600.78
252.99 K, 25061 kPa | 1573.71
253.35 K, 10014 kPa | 1543.89
257.43 K, 29986 kPa | 1573.22
258.16 K, 14929 kPa | 1543.37
258.74 K, 1019.7 kPa | 1509.93
259.75 K, 1914.3 kPa | 1509.82
260.88 K, 2987.6 kPa | 1509.7
261.92 K, 3946.9 kPa | 1509.59
262 K, 34997 kPa | 1572.72
263.02 K, 19886 kPa | 1542.85
263.07 K, 5031.9 kPa | 1509.47
266.61 K, 40003 kPa | 1572.21
267.97 K, 24863 kPa | 1542.32
268.54 K, 10046 kPa | 1508.89
273.04 K, 29941 kPa | 1541.78
273.95 K, 14959 kPa | 1508.34
274.52 K, 994.4 kPa | 1470.55
275.72 K, 1967.2 kPa | 1470.43
276.99 K, 3007.5 kPa | 1470.3
278.09 K, 34925 kPa | 1541.25
278.24 K, 4016.2 kPa | 1470.18
279.44 K, 4996 kPa | 1470.06
279.44 K, 19959 kPa | 1507.77
283.23 K, 39964 kPa | 1540.71
284.96 K, 24913 kPa | 1507.21
285.69 K, 10030 kPa | 1469.44
285.95 K, 1083.6 kPa | 1440.86
287.33 K, 2026 kPa | 1440.73
288.68 K, 3021.9 kPa | 1440.6
289.89 K, 3919.7 kPa | 1440.48
290.57 K, 29908 kPa | 1506.65
291 K, 4729.9 kPa | 1440.38
291.9 K, 15010 kPa | 1468.83
296.23 K, 34913 kPa | 1506.08
298.15 K, 9994.4 kPa | 1439.7
298.15 K, 19997 kPa | 1468.22
298.45 K, 987.1 kPa | 1407.52
300.45 K, 2316.3 kPa | 1407.33
301.51 K, 3015.6 kPa | 1407.24
302.03 K, 40008 kPa | 1505.49
303.04 K, 4032 kPa | 1407.09
304.36 K, 4907.1 kPa | 1406.97
304.43 K, 24980 kPa | 1467.62
305.45 K, 15319 kPa | 1439.01
310.78 K, 29953 kPa | 1467.01
312.11 K, 10022 kPa | 1406.27
312.12 K, 1009.6 kPa | 1369.41
312.57 K, 20469 kPa | 1438.34
313.79 K, 1997.3 kPa | 1369.27
315.49 K, 2985.1 kPa | 1369.12
317.16 K, 3966.3 kPa | 1368.97
317.19 K, 34932 kPa | 1466.39
318.7 K, 4864.6 kPa | 1368.84
319.58 K, 25523 kPa | 1437.69
319.65 K, 14861 kPa | 1405.59
323.78 K, 40025 kPa | 1465.77
326.44 K, 30424 kPa | 1437.05
327.49 K, 1098.2 kPa | 1324.67
327.49 K, 10016 kPa | 1368.08
327.51 K, 19990 kPa | 1404.89
329.49 K, 2043 kPa | 1324.5
331.48 K, 3053.3 kPa | 1324.34
333.43 K, 4045.4 kPa | 1324.18
333.47 K, 35408 kPa | 1436.41
335.24 K, 25016 kPa | 1404.19
335.37 K, 5030.2 kPa | 1324.02
335.65 K, 14779 kPa | 1367.37
340.74 K, 40506 kPa | 1435.74
342.96 K, 29980 kPa | 1403.51
344.67 K, 20018 kPa | 1366.6
345.22 K, 10048 kPa | 1323.21
353.15 K, 14072 kPa | 1322.56
353.15 K, 24901 kPa | 1365.87
353.15 K, 36576 kPa | 1402.6

Settings | surface tension liquid-gas [mN/m]
261.81 K | 15.99
261.89 K | 15.89
267.86 K | 15.39
267.87 K | 15.34
272.93 K | 14.86
272.95 K | 14.85
277.8 K | 14.35
277.82 K | 14.4
282.63 K | 13.7
282.77 K | 13.93
287.73 K | 13.15
287.83 K | 13.47
292.56 K | 13.04
297.67 K | 12.54
